Results taken from patent publication US7547727B2, “Therapeutic cyclopentane derivatives” (Allergan, Inc., priority 2006, dated 2009).

Legend:
hEP2/Gqs5 = target: T1, hEP2/Gqs5 (Homo sapiens, UniProt P43116); assay: FLIPR calcium signal, EP2; format: cell-based; conditions: HEK-293(EBNA) cells, read-out: Ca2+ Signal-EC50(nM) EP2
T1 construct: expressed in transfected cells; host or cells: HEK-293(EBNA)
Protocol: (§1) HEK-293(EBNA) cells, stably expressing one type or subtype of recombinant human prostaglandin receptors (prostaglandin receptors expressed: hDP/Gqs5; hEP1; hEP2/Gqs5; hEP3A/Gqi5; hEP4/Gqs5; hFP; hIP; hTP), were cultured in 100 mm culture dishes in high-glucose DMEM medium containing 10% fetal bovine serum, 2 mM I-glutamine, 250 μg/ml geneticin (G418) and 200 μg/ml hygromycin B as selection markers, and 100 units/ml penicillin G, 100 μg/ml streptomycin and 0.25 μg/ml amphotericin B.
(§2) Cells were seeded at a density of 5×10^4 cells per well in Biocoat® Poly-D-lysine-coated black-wall, clear-bottom 96-well plates (Becton-Dickinson) and allowed to attach overnight in an incubator at 37° C. Cells were then washed two times with HBSS-HEPES buffer (Hanks Balanced Salt Solution without bicarbonate and phenol red, 20 mM HEPES, pH 7.4) using a Denley Cellwash plate washer (Labsystems). […]
(§3) Cells were excited with an Argon laser at 488 nm, and emission was measured through a 510-570 nm bandwidth emission filter (FLIPR™, Molecular Devices, Sunnyvale, Calif.). […] The peak increase in fluorescence intensity was recorded for each well. […] The peak fluorescence change in each drug-containing well was then expressed relative to the controls. […]

hEP3A/Gqi5 = target: T2, hEP3A/Gqi5 (Homo sapiens, UniProt P43115); assay: FLIPR calcium signal, EP3; format: cell-based; conditions: HEK-293(EBNA) cells, read-out: Ca2+ Signal-EC50(nM) EP3
T2 construct: expressed in transfected cells; host or cells: HEK-293(EBNA)
T2 sequence (P43115 1-390): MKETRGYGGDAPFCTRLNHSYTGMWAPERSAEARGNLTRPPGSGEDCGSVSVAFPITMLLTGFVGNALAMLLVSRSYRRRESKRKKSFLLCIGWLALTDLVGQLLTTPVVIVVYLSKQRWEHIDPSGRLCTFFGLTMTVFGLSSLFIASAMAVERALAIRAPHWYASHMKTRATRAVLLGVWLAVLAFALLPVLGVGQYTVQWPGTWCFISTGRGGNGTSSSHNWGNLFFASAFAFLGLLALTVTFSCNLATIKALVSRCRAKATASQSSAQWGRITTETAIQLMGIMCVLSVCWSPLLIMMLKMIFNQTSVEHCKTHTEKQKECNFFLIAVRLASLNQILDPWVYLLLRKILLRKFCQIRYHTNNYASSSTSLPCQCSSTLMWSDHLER
Protocol: as §1, §2, §3

EP4 receptors = target: T3, EP4 receptors (Homo sapiens, UniProt P35408); assay: Radioligand binding, EP4; conditions: HEK-293 cells stably expressing EP4 receptors, [3H]PGE2
T3 construct: expressed in transfected cells; host or cells: HEK-293 (plasma membrane fraction)
Protocol: HEK-293 cells stably expressing the human or feline FP receptor, or EP1, EP2, or EP4 receptors were washed with TME buffer, scraped from the bottom of the flasks, and homogenized for 30 sec using a Brinkman PT 10/35 polytron. TME buffer was added to achieve a final 40 ml volume in the centrifuge tubes (the composition of TME is 100 mM TRIS base, 20 mM MgCl2, […]; 10N HCl is added to achieve a pH of 7.4).
The cell homogenate was centrifuged at 19000 r.p.m. for 20 min at 4° C. using a Beckman Ti-60 rotor. The resultant pellet was resuspended in TME buffer to give a final 1 mg/ml protein concentration, as determined by Biorad assay. Radioligand binding competition assays vs. [^3H-]17-phenyl PGF2α (5 nM) were performed in a 100 μl volume for 60 min. Binding reactions were started by adding plasma membrane fraction. The reaction was terminated by the addition of 4 ml ice-cold TRIS-HCl buffer and rapid filtration through glass fiber GF/B filters using a Brandel cell harvester. The filters were washed 3 times with ice-cold buffer and oven dried for one hour.
[^3H-] PGE2 (specific activity 180 Ci mmol) was used as the radioligand for EP receptors. [^3H] 17-phenyl PGF2α was employed for FP receptor binding studies. […] 17-phenyl PGF2α and non-specific binding determined with 10^−5M of unlabeled PGE2, or 17-phenyl PGF2α, according to receptor subtype studied.

hEP4/Gqs5 = target: T4, hEP4/Gqs5 (Homo sapiens, UniProt P35408); assay: FLIPR calcium signal, EP4; format: cell-based; conditions: HEK-293(EBNA) cells
T4 construct: expressed in transfected cells; host or cells: HEK-293(EBNA)
Protocol: as §1, §2, §3

hEP1 = target: T5, hEP1 (Homo sapiens, UniProt P34995); assay: FLIPR calcium signal, EP1; format: cell-based; conditions: HEK-293(EBNA) cells
T5 construct: expressed in transfected cells; host or cells: HEK-293(EBNA)
T5 sequence (P34995 1-402): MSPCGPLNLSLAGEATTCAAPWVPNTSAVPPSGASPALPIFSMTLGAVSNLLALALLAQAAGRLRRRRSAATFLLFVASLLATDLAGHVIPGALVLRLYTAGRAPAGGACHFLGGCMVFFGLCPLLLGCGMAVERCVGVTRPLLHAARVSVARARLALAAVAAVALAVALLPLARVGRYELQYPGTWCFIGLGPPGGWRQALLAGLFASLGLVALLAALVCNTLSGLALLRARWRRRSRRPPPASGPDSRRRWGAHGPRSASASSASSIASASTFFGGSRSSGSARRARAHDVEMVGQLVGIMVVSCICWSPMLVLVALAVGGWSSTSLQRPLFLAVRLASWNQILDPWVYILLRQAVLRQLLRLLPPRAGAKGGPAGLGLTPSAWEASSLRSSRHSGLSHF
Protocol: as §1, §2, §3

hTP = target: T6, hTP (Homo sapiens, UniProt P21731); assay: FLIPR calcium signal, TP; format: cell-based; conditions: HEK-293(EBNA) cells
T6 construct: expressed in transfected cells; host or cells: HEK-293(EBNA)
T6 sequence (P21731 1-343): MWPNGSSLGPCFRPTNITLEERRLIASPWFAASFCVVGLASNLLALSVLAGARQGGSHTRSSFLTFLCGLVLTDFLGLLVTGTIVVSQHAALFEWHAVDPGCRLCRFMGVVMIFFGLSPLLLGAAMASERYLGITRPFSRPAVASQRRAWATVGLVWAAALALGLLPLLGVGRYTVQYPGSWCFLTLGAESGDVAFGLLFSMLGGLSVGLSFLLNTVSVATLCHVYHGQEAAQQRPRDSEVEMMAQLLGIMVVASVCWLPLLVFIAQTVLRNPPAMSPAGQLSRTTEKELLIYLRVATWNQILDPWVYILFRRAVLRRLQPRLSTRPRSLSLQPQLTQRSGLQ
Protocol: as §1, §2, §3

human EP2 receptors = target: T7, human EP2 receptors (Homo sapiens, UniProt P43116); assay: Competition radioligand binding, EP2; conditions: HEK 293 cells stably expressing human EP2 receptors, [3H]PGE2
T7 construct: expressed in transfected cells; host or cells: HEK 293 (membranes or whole cells)
Protocol: Competition binding experiments were performed in a medium containing Hank's balanced salt solution, Hepes 20 mM, pH 7.3, membranes (˜60 μg protein) or 2×10^5 cells from HEK 293 cells stably expressing human EP2 receptors, [^3H]PGE2 (10 nM) and various concentrations of test compounds in a total volume of 300 μl. Reaction mixtures were incubated at 23° C. for 60 min, and were filtered over Whatman GF/B filters under vacuum. Filters were washed three times with 5 ml ice-cold buffer containing 50 mM Tris/HCl (pH 7.3). Non-specific binding was estimated in the presence of excess unlabeled PGE2 (10 μM). Binding data fitted to the binding model for a single class of binding sites, using nonlinear regression analysis. IC50 values thus obtained were converted to Ki using the equation of Ki=(IC50/(1+[L]/KD) where [L] represents PGE2 concentration (10 nM) and KD the dissociation constant for [^3H]PGE2 at human EP2 receptors (40 nM). […]
The cell homogenate was centrifuged at 19000 r.p.m. for 20 min at 4° C. using a Beckman Ti-60 rotor. The resultant pellet was resuspended in TME buffer to give a final 1 mg/ml protein concentration, as determined by Biorad assay. […]
[^3H-] […] 17-phenyl PGF2α and non-specific binding determined with 10^−5M of unlabeled PGE2, or 17-phenyl PGF2α, according to receptor subtype studied.

hFP = target: T8, hFP (Homo sapiens, UniProt P43088); assay: FLIPR calcium signal, FP; format: cell-based; conditions: HEK-293(EBNA) cells
T8 construct: expressed in transfected cells; host or cells: HEK-293(EBNA)
Protocol: as §1, §2, §3

hIP = target: T9, hIP (Homo sapiens, UniProt P43119); assay: FLIPR calcium signal, IP; format: cell-based; conditions: HEK-293(EBNA) cells
T9 construct: expressed in transfected cells; host or cells: HEK-293(EBNA)
Protocol: as §1, §2, §3

hDP/Gqs5 = target: T10, hDP/Gqs5 (Homo sapiens, UniProt Q13258); assay: FLIPR calcium signal, DP; format: cell-based; conditions: HEK-293(EBNA) cells
T10 construct: expressed in transfected cells; host or cells: HEK-293(EBNA)
T10 sequence (Q13258 1-359): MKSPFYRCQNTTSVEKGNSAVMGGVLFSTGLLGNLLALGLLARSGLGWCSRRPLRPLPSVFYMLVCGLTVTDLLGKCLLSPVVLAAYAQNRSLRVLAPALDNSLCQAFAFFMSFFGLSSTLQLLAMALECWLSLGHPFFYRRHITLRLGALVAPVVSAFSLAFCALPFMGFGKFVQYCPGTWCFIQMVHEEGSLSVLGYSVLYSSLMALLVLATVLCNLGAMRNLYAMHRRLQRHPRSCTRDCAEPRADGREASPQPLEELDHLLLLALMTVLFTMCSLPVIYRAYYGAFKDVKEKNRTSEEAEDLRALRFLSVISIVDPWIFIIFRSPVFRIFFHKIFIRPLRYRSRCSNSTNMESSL
Protocol: as §1, §2, §3

T8 sequence (P43088 whole entry): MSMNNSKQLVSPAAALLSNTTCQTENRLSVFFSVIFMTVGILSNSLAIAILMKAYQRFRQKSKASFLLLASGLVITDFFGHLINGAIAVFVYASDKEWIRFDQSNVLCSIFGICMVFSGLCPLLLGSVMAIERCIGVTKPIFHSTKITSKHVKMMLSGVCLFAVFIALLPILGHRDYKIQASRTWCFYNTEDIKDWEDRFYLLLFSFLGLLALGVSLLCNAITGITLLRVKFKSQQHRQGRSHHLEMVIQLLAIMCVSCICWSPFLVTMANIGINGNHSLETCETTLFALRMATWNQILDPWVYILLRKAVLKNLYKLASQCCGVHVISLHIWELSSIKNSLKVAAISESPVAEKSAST
T4 sequence (P35408 whole entry): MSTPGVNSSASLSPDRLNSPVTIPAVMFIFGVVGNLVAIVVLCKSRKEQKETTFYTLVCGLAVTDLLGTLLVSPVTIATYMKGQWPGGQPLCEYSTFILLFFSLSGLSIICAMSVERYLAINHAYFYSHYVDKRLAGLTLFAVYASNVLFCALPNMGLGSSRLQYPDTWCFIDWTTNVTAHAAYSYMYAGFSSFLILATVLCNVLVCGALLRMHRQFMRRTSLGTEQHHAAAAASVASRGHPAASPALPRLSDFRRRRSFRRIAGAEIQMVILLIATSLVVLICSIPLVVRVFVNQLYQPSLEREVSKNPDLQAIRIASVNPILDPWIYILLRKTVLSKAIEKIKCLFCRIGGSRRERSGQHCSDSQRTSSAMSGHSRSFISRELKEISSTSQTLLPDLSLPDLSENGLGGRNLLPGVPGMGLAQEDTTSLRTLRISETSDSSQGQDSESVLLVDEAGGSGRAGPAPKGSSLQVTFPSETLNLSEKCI
T3 sequence (P35408 whole entry): as above
T9 sequence (P43119 whole entry): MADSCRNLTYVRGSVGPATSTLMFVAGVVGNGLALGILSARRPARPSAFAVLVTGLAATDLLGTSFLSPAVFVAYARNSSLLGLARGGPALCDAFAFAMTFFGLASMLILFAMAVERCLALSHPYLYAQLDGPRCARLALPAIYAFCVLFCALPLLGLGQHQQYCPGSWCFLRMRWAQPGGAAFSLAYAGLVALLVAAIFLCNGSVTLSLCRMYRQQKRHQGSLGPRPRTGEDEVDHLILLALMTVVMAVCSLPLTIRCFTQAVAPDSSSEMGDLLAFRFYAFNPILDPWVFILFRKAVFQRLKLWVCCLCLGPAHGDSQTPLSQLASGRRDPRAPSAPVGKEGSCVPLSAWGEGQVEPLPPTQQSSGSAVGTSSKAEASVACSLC
T7 sequence (P43116 whole entry): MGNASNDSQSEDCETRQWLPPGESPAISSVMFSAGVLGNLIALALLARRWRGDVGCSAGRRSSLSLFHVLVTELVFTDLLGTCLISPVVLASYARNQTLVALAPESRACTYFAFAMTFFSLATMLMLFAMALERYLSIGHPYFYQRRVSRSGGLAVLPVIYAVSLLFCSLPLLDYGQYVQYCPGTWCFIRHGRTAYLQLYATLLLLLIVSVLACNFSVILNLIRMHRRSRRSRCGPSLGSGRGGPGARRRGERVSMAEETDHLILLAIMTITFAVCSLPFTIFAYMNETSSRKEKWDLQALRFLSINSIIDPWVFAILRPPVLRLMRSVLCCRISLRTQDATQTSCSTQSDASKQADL
T1 sequence (P43116 whole entry): as above

SMILES: CCCCCC(O)c1ccc([C@@H]2[C@@H](C/C=C\CCCC(=O)O)[C@H](C#N)C[C@H]2O)cc1 (stereo partly drawn) [(Z)-7-{(1S,2S,3R,5R)-5-Cyano-3-hydroxy-2-[4-(1-hydroxy-hexyl)-phenyl]-cyclopentyl}-hept-5-enoic acid]
- EC50 (hEP2/Gqs5): 34 nM
- EC50 (hEP3A/Gqi5): 10000 nM
- Ki (EP4 receptors): > 10000 nM
- Ca2+ Signal-EC50(nM) EP4 (hEP4/Gqs5): not active
- Ca2+ Signal-EC50(nM) EP1 (hEP1): not active
- Ca2+ Signal-EC50(nM) TP (hTP): not active
- Ki (human EP2 receptors): 1250 nM
- Ca2+ Signal-EC50(nM) FP (hFP): not active
- Ca2+ Signal-EC50(nM) IP (hIP): not active
- Ca2+ Signal-EC50(nM) DP (hDP/Gqs5): not active
